Measured values published in PubChem BioAssay AID1053171 (The Scripps Research Institute Molecular Screening Center, 2014).
The source made the active and inactive calls. The rule behind the calls is not given here.

What follows are compounds tested against HIV-1 integrase (multimerization) (assay: compounds increasing HIV-1 IN multimer formation – biochemical, TR-FRET, counter-screen for LEDGF/p75 integration inhibitor project, dose response (AID 1053171)).

Row | Compound | IC50
1 | CN(C)c1ccc(O)c2c1CC1CC3[C@@H](N(C)C)C(=O)C(C(N)=O)=C(O)[C@]3(O)C(=O)C1=C2O (some centres undefined) | 2.53 µM
2 | O=[N+]([O-])c1cc(Br)c(O)c(C=Nc2ccc(N3CCOCC3)cc2)c1 | > 53.8 µM (inactive)
3 | O=c1cc2c(=O)oc3cc(O)c(O)oc3c2c(O)c1O | 0.354 µM
4 | COc1cc(C)cc(C(=O)O)c1C1=C(O)c2cccc(O)c2C(=O)C1=O | inactive
5 | O=C1c2cc(O)c(O)cc2OC(c2ccc(O)c(O)c2)C1O (centres undefined) | inactive
6 | N/C(=N\N=C/c1ccc(-c2ccc(O)c(C(=O)O)c2)o1)N[N+](=O)[O-] | 4.54 µM
7 | O=c1c(O)c(-c2ccc(O)c(O)c2)oc2cc(O)cc(O)c12 | 5.34 µM
8 | CN(C)[C@@H]1C(=O)C(C(N)=O)=C(O)[C@@]2(O)C(=O)C3=C(O)c4c(O)cccc4[C@@](C)(O)C3[C@H](O)C12 (some centres undefined) | inactive
9 | NC(=O)c1ccc(N=Cc2c(O)n(Cc3ccco3)c(=O)[nH]c2=O)cc1 | > 53.7 µM (inactive)
10 | O=C1NC(=Nc2ccc(O)cc2)S/C1=C\C=C\c1ccco1 | inactive
11 | C[n+]1c2cc(N)ccc2cc2ccc(N)cc21 | > 17.9 µM (inactive)
12 | O=C1C=C(O)c2[nH]c(=O)ccc2C1=O | 7.38 µM
13 | O=[N+]([O-])c1ccccc1NC(=S)N/N=C/c1ccc(O)c(O)c1 | inactive
14 | O=c1c(O)c(-c2ccc(O)c(O)c2)oc2cc(O)ccc12 | 1.45 µM
15 | O=C1C=C(O)c2c(O)cc(O)c(O)c2C1=O | 0.085 µM
16 | O=C1CCCC(O)=C1N=Nc1ccc(C(=O)O)cc1 | 2.72 µM
17 | CN(C)C1C(=O)C(C(N)=O)=C(O)C2(O)C(=O)C3=C(O)c4c(O)cccc4C(C)(O)C3C(O)C12 (centres undefined) | inactive
18 | C=C1c2cccc(O)c2C(O)=C2C(=O)[C@]3(O)C(O)=C(C(N)=O)C(=O)[C@@H](N(C)C)[C@@H]3[C@@H](O)[C@H]12 | 8.53 µM
19 | NS(=O)(=O)c1ccc(N/N=C/c2ccc(O)c(O)c2O)c([N+](=O)[O-])c1 | 3.4 µM
20 | Cc1cc(C(=O)N/N=C/c2ccc(O)c([N+](=O)[O-])c2)c(C)n1-c1ccc(F)cc1 | inactive
21 | O=C1/C(=C\c2ccc(O)c(O)c2)C(c2ccccc2)=NN1c1ccccc1 | 8.68 µM
22 | CC1=NN(c2cccc(C(=O)O)c2)C(=O)/C1=C\C=C\c1ccco1 | 1.41 µM
23 | Cc1c(CC(=O)N2CCN(C(=O)C3COc4ccccc4O3)CC2)c(=O)oc2c(O)c(O)ccc12 (centres undefined) | > 53.7 µM (inactive)
24 | O=C1C=C(Nc2ccccc2O)c2ccccc2C1=O | inactive
